Earlier results, collected in patent publication US20040170683A1, “Tablets comprising modafinil” (priority 2003, published 2004).

What was measured:
[1] = oral, human trials; median particle size between 30 and 50 microns versus between 80 and 150 microns
[2] = capsules containing the finer particles versus capsules containing the coarser particles

NC(=O)C[S+]([O-])C(c1ccccc1)c1ccccc1 (centres unmarked) [modafinil, Modafinil]
extent of absorption [1]: greater extent of absorption | dissolution of capsules [2]: substantially faster
